# Values quoted from earlier work in patent US20240299301A1, “LIPID NANOPARTICLES AND METHOD FOR PREPARING SAME” (THERNA THERAPEUTICS, priority 2021, published 2024).
compound,measurement,value
"CCCCC/C=C\C/C=C\CCCCCCCCC(CCCCCCCC/C=C\C/C=C\CCCCC)OC(=O)CCCN(C)C [DLin-MC3-DMA, (6Z, 9Z, 28Z, 31Z)-heptatriaconta 6,9,28,31-tetraen-19-yl 4-(dimethylamino)butanoate]",pKa of the amine group,about 6.5
